# Data published in the supplement of paper PMC10307832.
# Key:
# Assay in all cases: relative viability (nuclei count vs DMSO), 5 days (fraction); higher = more cells survive
# VX-702 + Pemetrexed = compound: NC(=O)c1ccc(N(C(N)=O)c2c(F)cccc2F)nc1-c1ccc(F)cc1F [VX-702] + Nc1nc2[nH]cc(CCc3ccc(C(=O)N[C@@H](CCC(=O)O)C(=O)O)cc3)c2c(=O)[nH]1 [Pemetrexed] (partner 0.2 µM)
# In short: (§1)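 Five library-drug doses in √10 steps were combined with a fixed anchor-drug dose, or a single drug was given alone, by pin tool to lung cancer cell lines in 1536-well plates the day after seeding. Nuclei were stained and counted after 5 days. Relative viability is the nuclei count in treated wells over that in vehicle wells, taken as the median of duplicate plates.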
# Dabrafenib + Pemetrexed = compound: CC(C)(C)c1nc(-c2cccc(NS(=O)(=O)c3c(F)cccc3F)c2F)c(-c2ccnc(N)n2)s1 [Dabrafenib] + Nc1nc2[nH]cc(CCc3ccc(C(=O)N[C@@H](CCC(=O)O)C(=O)O)cc3)c2c(=O)[nH]1 [Pemetrexed] (partner 0.2 µM)
# In short: as §1
# VX-702 + Foretinib = compound: NC(=O)c1ccc(N(C(N)=O)c2c(F)cccc2F)nc1-c1ccc(F)cc1F [VX-702] + COc1cc2c(Oc3ccc(NC(=O)C4(C(=O)Nc5ccc(F)cc5)CC4)cc3F)ccnc2cc1OCCCN1CCOCC1 [Foretinib] (partner 0.25 µM)
# In short: as §1
# VX-702 + Trametinib = compound: NC(=O)c1ccc(N(C(N)=O)c2c(F)cccc2F)nc1-c1ccc(F)cc1F [VX-702] + CC(=O)Nc1cccc(-n2c(=O)n(C3CC3)c(=O)c3c(Nc4ccc(I)cc4F)n(C)c(=O)c(C)c32)c1 [Trametinib] (partner 0.02 µM)
# In short: as §1
Cell Line,relative viability (VX-702 + Pemetrexed; first compound 0.02 µM),relative viability (VX-702 + Pemetrexed; first compound 0.2 µM),relative viability (VX-702 + Pemetrexed; first compound 0.6325 µM),relative viability (VX-702 + Pemetrexed; first compound 2 µM),relative viability (Dabrafenib + Pemetrexed; first compound 0.009487 µM),relative viability (Dabrafenib + Pemetrexed; first compound 0.03 µM),relative viability (Dabrafenib + Pemetrexed; first compound 0.09487 µM),relative viability (Dabrafenib + Pemetrexed; first compound 0.3 µM),relative viability (VX-702 + Foretinib; first compound 0.02 µM),relative viability (VX-702 + Foretinib; first compound 0.2 µM),relative viability (VX-702 + Foretinib; first compound 0.6325 µM),relative viability (VX-702 + Foretinib; first compound 2 µM),relative viability (VX-702 + Trametinib; first compound 0.02 µM),relative viability (VX-702 + Trametinib; first compound 0.2 µM),relative viability (VX-702 + Trametinib; first compound 0.6325 µM),relative viability (VX-702 + Trametinib; first compound 2 µM),relative viability (Dabrafenib + Pemetrexed; first compound 0.003 µM)
NCI-H2405,1.11,1.04,1.04,1.2,0.967,0.687,0.878,0.839,1.08,0.98,0.965,1.02,0.58,0.593,0.615,0.618,–
NCI-H3122,0.21,0.194,0.199,0.187,0.195,0.214,0.203,0.215,0.964,0.946,1.01,0.923,0.24,0.201,0.206,0.203,0.19
PC-3 [JPC-3],1.23,1.08,1.23,1.07,1.24,1.12,1.05,1.14,1.11,1.02,1.1,1.05,0.644,0.76,0.768,0.855,–
PC-14,0.142,0.15,0.124,0.119,0.135,0.133,0.125,0.154,1.02,0.956,0.986,1.08,0.781,0.693,0.825,0.925,–
RERF-LC-KJ,0.504,0.6,0.484,0.454,0.525,0.477,0.501,0.536,0.995,0.923,0.984,0.934,0.749,0.872,0.86,0.919,0.491
SK-LU-1,1.01,0.965,0.936,1.04,1.06,0.898,0.865,0.715,0.917,0.786,0.777,1.01,0.497,0.472,0.486,0.651,–
SK-MES-1,0.936,0.89,0.891,0.979,0.952,0.915,0.86,0.742,0.935,0.97,0.934,0.911,0.546,0.52,0.481,0.523,–
SW 1573,0.759,0.914,0.775,0.741,0.9,0.792,0.777,0.782,1.05,0.876,0.784,0.679,0.569,0.467,0.473,0.649,0.79
UMC-11,0.908,0.711,0.755,0.922,0.806,0.727,0.822,0.871,0.988,0.843,0.893,1.21,0.682,0.544,0.562,0.846,0.761
